Common to all, as to assay: inhibition of tumour cell growth, NCI panel, 48 h
Assay [1] concerns CCRF-CEM leukemia.
Assay [2] has as its system SK-MEL-2 melanoma.
Assay [3] concerns SK-OV-3 ovarian.
Assay [4] has as its system SK-MEL-5 melanoma.
Assay [5] deals with IGROV1 ovarian.
Assay [6] deals with HCT-15 colon.
Assay [7] deals with M14 melanoma.
For assay [8], the system named is MOLT-4 leukemia.
Assay [9] has as its system ACHN renal.
Assay [10] deals with SNB-19 CNS.

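Values below derive from 48-hour exposures of cells grown in 96-well plates, with endpoints linearly interpolated between the two concentrations bracketing the appropriate inhibition level. Here, GI50 denotes the concentration required for 50% inhibition of growth. The concentration for full growth arrest is given as TGI.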

In the case of `CC/C(=C(/CC)c1ccc(OP(=O)([O-])[O-])cc1)c1ccc(OP(=O)([O-])[O-])cc1.N.N.N.N.[Pt+4].[Pt+4]`, the GI50 in assay [1] is 0.898 µM; in assay [2], 13.1 µM; in assay [3], 3.85 µM; in assay [4], 2.22 µM; in assay [5], 5.36 µM; in assay [6], 11.8 µM. Also, the figures for the GI50 in assay [7], in assay [8] and in assay [9] were 1.63 µM, 1.09 µM and 2.08 µM, respectively. Besides, the TGI is > 100 µM in assay [1]; > 100 µM in [2]; 17 µM in [3]; 9.34 µM in assay [4]; 53.6 µM in [5]; 45.4 µM in assay [6]. Besides, the results for the TGI in assay [7], in assay [8] and in [9] were 6.87 µM, 19.5 µM and 10.9 µM, respectively.

`CNS(=O)(=O)NN(C)S(=O)(=O)c1ccc(C)cc1`: the TGI in [1], in [2], in assay [3], in assay [10], in [4] and in assay [5] was > 100 µM each time. The TGI in assay [7], in assay [8] and in assay [9] was > 100 µM each time.

Take `CC1(C)CC[C@]2(C(=O)O)CCC3(C)C(=CCC4[C@@]5(C)CC[C@H](OC6OCC(O)C(O)C6OC6OC(CO)C(O)C(O)C6O)C(C)(C)C5CC[C@]43C)C2C1` (some centres undefined): the TGI was 4.25 µM in assay [3]; 3.7 µM in assay [10]; 11.4 µM in assay [4]; 5.23 µM in assay [5]; 4.38 µM in assay [6]; 3.45 µM in [7]. For the same compound, the TGI in [8] worked out at 7.95 µM; in [9], 3.64 µM.

As for `COc1cc(-c2[nH]ncc2CCCC(=O)Nc2ccccc2[N+](=O)[O-])ccc1O`, the TGI in [1], in [3], in [4], in assay [5], in [6] and in [7] was > 100 µM throughout. Moreover, the TGI in [8] and in assay [9] was > 100 µM in each case.

For the compound `CC(=O)OCC1OC(n2cnc3c(I)nc(I)nc32)C(OC(C)=O)C1OC(C)=O` (centres undefined), the TGI in assay [1] stood at 27.4 µM; in assay [2], 33 µM; in [10], 25 µM; in [4], 26.1 µM; in assay [5], 19.8 µM; in assay [6], 15.6 µM. In addition, the TGI in assay [7] turned out to be 31.6 µM; in assay [8], 24.8 µM; in [9] it was 21.8 µM.

Consider `Oc1ccc(-c2nc(-c3ccc(F)cc3)c(-c3ccncc3)[nH]2)cc1`, for which the GI50 in assay [1] was 9.62 µM; in assay [3], 5.21 µM; in assay [10], 35.3 µM; in [4] it was 4.73 µM; in assay [5] it was 4.3 µM; in assay [6] it was 13.2 µM. Moreover, the GI50 in assay [7] was 4.02 µM; in [8] it was 7.97 µM; in assay [9] it was 3.97 µM. Moreover, the TGI in assay [1] was 59.8 µM; in assay [3], 80.3 µM; in assay [10], > 100 µM; in [4], 29.6 µM; in [5], 29.4 µM; in assay [6] it was > 100 µM. Moreover, the values for the TGI in [7], in [8] and in [9] were 20.3 µM, 32.5 µM and > 100 µM, respectively.

`CC1=C(C(=O)Nc2cc(F)c(F)cc2F)C(c2cccc([N+](=O)[O-])c2)C(C(=O)Nc2ccccc2C(F)(F)F)=C(C)N1` (centres undefined): the TGI is 55.1 µM in assay [1]; 42.1 µM in [2]; 88.9 µM in assay [3]; > 100 µM in [10]; 63.9 µM in assay [4]; > 100 µM in [5]. The TGI in assay [7] came out at 55.5 µM; in assay [8], 42 µM; in [9] it was 66.1 µM.

`Cn1cc(-c2nonc2-c2cn(C)c3ccc(Br)cc23)c2ccccc21`: the GI50 was 3.37 µM in assay [1]; 3.36 µM in assay [2]; 7.52 µM in assay [3]; 5.33 µM in [10]; 3.37 µM in assay [4]; 5.13 µM in assay [5]. The GI50 in assay [6] was 2.17 µM; in [7], 3.93 µM; in [9], 4.29 µM. Also, the TGI in [1], in assay [2], in [3], in [10], in assay [4] and in [5] was > 100 µM in each case. The TGI in assay [6], in assay [7] and in assay [9] was > 100 µM each time.

As to `O=C(NCCS(=O)(=O)N1C(=O)C2CCCN2C(=O)[C@@H]1Cc1ccccc1)OCc1ccccc1` (some centres undefined), the TGI in [1], in assay [3], in [10], in assay [4], in [5] and in [6] was > 100 µM each time. Further, the TGI in assay [7], in assay [8] and in assay [9] was > 100 µM in each case.

Consider `Cc1cc(C)c2c(c1C)CN1CN2Cc2c(C)c(C)cc(C)c21`, for which the TGI in assay [1], in assay [3], in assay [5], in assay [6], in assay [7] and in [8] was > 100 µM in each case. Besides, the TGI in assay [9] was > 100 µM.

As to `Clc1ccc(C2=NN(c3ccccc3)C3c4cc(Br)ccc4OCC23)cc1` (centres undefined), the TGI in assay [1], in assay [2], in assay [3], in assay [10], in assay [4] and in [5] was > 100 µM throughout. The TGI in assay [8] and in assay [9] was > 100 µM each time.

Take `CC(=O)[CH-]C(=O)c1ccccc1.CC(=O)[CH-]C(=O)c1ccccc1.[O-]Cc1cccs1.[O-]Cc1cccs1.[Ti+4]`: the GI50 in assay [2] was > 100 µM; in [3] it was > 100 µM; in assay [10], > 100 µM; in assay [4], > 100 µM; in assay [5] it was 89.9 µM; in assay [6] it was 20 µM. In addition, the GI50 in [7] is 21.6 µM; in assay [8] it was > 100 µM; in assay [9], > 100 µM. The TGI is > 100 µM in assay [2]; > 100 µM in [3]; > 100 µM in [10]; > 100 µM in assay [4]; > 100 µM in [5]; 46.2 µM in assay [6]. Besides, the TGI in [7], in assay [8] and in [9] was > 100 µM each time.

Turning to `CCOC(=O)C1=C(O)CSC1=Nc1ccc(N=C2SCC(O)=C2C(=O)OCC)cc1`, the TGI was > 100 µM in assay [1]; 33.7 µM in assay [2]; 65.3 µM in assay [3]; > 100 µM in assay [10]; 44.3 µM in assay [4]; 60.6 µM in assay [5]. Also, the TGI in [6] worked out at 57.7 µM; in assay [7], 52.5 µM; in [9], 67.4 µM.

On to `CCN1N=CSC12C(=O)N(c1ccccc1)C(=O)N2c1ccccc1` (centres undefined), for which the TGI in [1], in assay [3], in assay [10], in assay [4], in assay [5] and in [7] was > 100 µM throughout. Further, the TGI in assay [8] and in assay [9] was > 100 µM in each case.

Turning to `COc1ccc(C(=O)Nc2ccccc2)cc1[N+](=O)[O-]`, the TGI in assay [1], in assay [2], in [3], in assay [10], in assay [4] and in assay [5] was > 100 µM in each case. The TGI in assay [6], in assay [7] and in assay [8] was > 100 µM throughout.

`O=C1/C(=C/c2ccccc2Cl)COc2ccccc21`: the TGI came out at 33.7 µM in [1]; 29 µM in assay [2]; 72.5 µM in assay [3]; 35.6 µM in [5]; 68.1 µM in assay [8]; 34.6 µM in assay [9].

For `COc1ccc2c(c1)C(=O)/C(=C/c1ccc(OCC(=O)c3ccc(Cl)cc3)cc1)O2`, the GI50 in assay [1] was 1.92 µM; in [2], 26.7 µM; in assay [3] it was 62.5 µM; in [10], 48.2 µM; in assay [4], 17.2 µM; in assay [5], 11.1 µM. The values for the GI50 in assay [6], in assay [8] and in assay [9] were 12.6 µM, 3.03 µM and 15.9 µM, respectively. Moreover, the TGI in assay [1] was 4.75 µM; in assay [2] it was 99.9 µM; in assay [3], > 100 µM; in assay [10], > 100 µM; in assay [4], 59.3 µM; in assay [5] it was 35.3 µM. For the same compound, the TGI in assay [6] stood at 26.3 µM; in assay [8] it was 12.8 µM; in [9] it was 30.5 µM.

For the compound `COc1ccc(Br)c(CCCCC(=O)O)c1`, the TGI in [1], in [3], in assay [10], in assay [4], in assay [5] and in assay [6] was > 100 µM throughout. The TGI in assay [7], in assay [8] and in [9] was > 100 µM throughout.

Take `C[C@@H](Oc1cc(-n2cnc3ccc(OCC4CCN(C)CC4)cc32)sc1C(N)=O)c1ccccc1C(F)(F)F`: the GI50 in assay [1] was 0.0673 µM; in assay [3], 0.143 µM; in assay [10], 0.163 µM; in [4], 0.217 µM; in [5] it was 0.217 µM; in [6], 0.126 µM. For the same compound, the GI50 is 0.0879 µM in [7], 0.0916 µM in assay [8] and 0.801 µM in [9]. Besides, the TGI came out at 3.3 µM in assay [1]; 2.25 µM in assay [3]; 4.56 µM in assay [10]; 2.95 µM in [4]; 4.41 µM in assay [5]; 3.2 µM in [6]. In addition, the TGI in assay [7] is 1.25 µM; in [8], 2.98 µM; in assay [9] it was 4.52 µM.

For `Cc1cc2c(C)nn(Cc3ccc(Cl)cc3Cl)c2c(C#N)c1C`, the TGI in assay [1], in [2], in assay [3], in assay [10], in assay [5] and in [6] was > 100 µM in each case. In addition, the TGI in [8] and in assay [9] was > 100 µM each time.

For the compound `Cc1ccc(S(=O)(=O)OC(C=O)C(O)C(O)COC(c2ccccc2)(c2ccccc2)c2ccccc2)cc1` (centres undefined), the TGI in assay [2] worked out at 29.9 µM; in assay [3], 28.4 µM; in assay [10], 31.7 µM; in assay [4], 28.9 µM; in assay [5], 29.5 µM; in [6], 27.1 µM. In addition, the TGI in [7] was determined as 30.1 µM; in assay [8], 46.5 µM; in [9], 28.7 µM.

On to `c1ccc(CNc2nc(Nc3ccc(-c4nc5ccccc5[nH]4)cc3)c3cn[nH]c3n2)cc1`, for which the GI50 is 3.62 µM in assay [1]; 3.97 µM in assay [3]; 4.27 µM in assay [10]; 1.74 µM in assay [4]; 2.49 µM in assay [5]; 1.89 µM in [6]. For the same compound, the GI50 in assay [7] is 1.72 µM; in assay [8] it was 2.43 µM; in assay [9] it was 2.29 µM. Further, the TGI is > 100 µM in [1]; 17.8 µM in assay [3]; 31.3 µM in assay [10]; 3.3 µM in assay [4]; 6.99 µM in [5]; 7.65 µM in assay [6]. In addition, the TGI in assay [7] amounted to 3.81 µM; in assay [8], 6.33 µM; in assay [9], 6.5 µM.

With `CC[C@]12C=CCN3CC[C@]4(C(=C(C(=O)OC)C1)Nc1ccccc14)[C@@H]32`, the GI50 is 2.73 µM in [1]; 4.45 µM in [2]; 10.7 µM in assay [10]; 4.87 µM in [4]; 5.8 µM in assay [5]; 2.68 µM in assay [6]. The GI50 in assay [7] is 2.97 µM; in [8], 3.16 µM; in [9] it was 2.07 µM. Moreover, the TGI in assay [1] was > 100 µM; in assay [2] it was 17.7 µM; in assay [10], 23.3 µM; in [4], 16.8 µM; in assay [5], 20.6 µM; in assay [6] it was 10.4 µM. The TGI in assay [7] turned out to be 12.5 µM; in assay [8], 14.7 µM; in assay [9] it was 4.54 µM.

These data come from PubChem BioAssay (NCI).
